Where a SMILES comes first, the peptide text is derived from it. The star is where a group is joined. X1 = CCCCCCCCCCCCCCNC(=O)OC[C@H](C*)OC(=O)NCCCCCCCCCCCCCC; Palmitoyl = CCCCCCCCCCCCCCCC(=O)*
Experiments:
[1] = Plasma stability; format: in vitro ADME; conditions: compared with Pam3, Figure S3B
From the text: Pam3 is a lipopeptide and serves as a TLR2 agonist through binding to TLR2/TLR1 heterodimer. Although Pam3 is widely used as a TLR2 agonist, some intrinsic problems remain in detailed mechanism studies and drug development. The two ester groups of Pam3 can be easily hydrolyzed in plasma, and the hydroxyl group in serine could be readily oxidized in physiological conditions (Figure S1A in Supplementary Material). […] In addition, we displaced serine residue in Pam3 with glycine residue to eliminate this chiral center (Figures S1A,B in Supplementary Material). Since the third lysine residue in Pam3 is crucial for H bonding, we kept three lysine residues in the new molecule and removed the forth lysine residue to further reduce the molecular weight of the new TLR2 agonist, (2S,5S,8S,14R,18R)-2,5,8-tris(4-aminobutyl)-4,7,10,13,21-pentaoxo-14-palmitamido-18-((tetradecylcarbamoyl)oxy)-20-oxa-16-thia-3,6,9,12,22-pentaazahexatriacontan-1-oic acid. It is termed SUP3 (Figure 1A; Figures S1A,B in Supplementary Material). Chemical characterization of SUP3 by ^1H nuclear magnetic resonance and electrospray ionization mass spectrum analysis further confirm the structure (Figures S2A,B in Supplementary Material).

[2] = test system: GMDCs; test: Cytokine production by GMDCs; format: cell-based, mice; conditions: 200 nM, 24 h, ELISA; SUP3 versus Pam3
Experimental: Splenic DCs (5 × 10^5 cells/mL) were stimulated by Pam3 (200 nM), SUP3 (200 nM), or CpG ODN 1668 (20 nM; Adipogen IAX-200-001) in the GM-CSF (20 ng/mL) supplemented medium for indicated periods. Cell culture supernatants were harvested at indicated time points and stored at −40°C. RAW 264.7 cells and GMDCs were stimulated by lipopolysaccharide (LPS) (20 ng/mL; Adipogen IAX-100-013), Pam3, or SUP3 (both at 200 nM) for 24 h. For in vivo administration, Pam3 (2 nmol per mouse), SUP3 (2 nmol per mouse), or LPS (1 µg per mouse) were intravenously (i.v.) injected via tail veins. Serum was obtained through tail vein bleeding and centrifuged after coagulation and stored at −40°C. Cytokines (IL-6, eBioscience 88-7064; TNFα, eBioscience 88-7324; IL-12p40, BioLegend 431604), chemokine (MIP1α, R&D Systems DY450-05), and total IgM (eBioscience, 88-50470) were quantified by ELISA kits following the instructions of manufacturers.
Figure 1 Specificity and activity of novel TLR2 agonist SUP3. (A) Schematic chemical structure of SUP3. (B) Surface expression of TLR2 in wild-type (WT) and Tlr2^−/− RAW 264.7 cell lines. Gray shadows represented isotype control and black lines represented TLR2. […] The production of cytokines IL-6 and TNFα in culture supernatant was determined by ELISA. *p < 0.05, ****p < 0.0001, “n.s.” indicates statistically non-significant.

[3] = Antigen deposition (OVA-AF647) in draining lymph nodes; format: in vivo, mice; conditions: OVA-AF647 25 µg per mouse s.c. with 2 nmol per mouse, 24 h; vs OVA alone or OVA with Pam3
Experimental: Wild-type mice were s.c. injected with OVA-AF647 alone (25 µg per mouse; Molecular Probes O-34784), or mixtures of OVA-AF647 with SUP3 (2 nmol per mouse) or Pam3 (2 nmol per mouse) at groin. Inguinal lymph nodes were isolated 24 h post-injection, and then immune cells were analyzed by flow cytometry.
Figure 6 SUP3 enhanced antigen deposition in draining lymph nodes. Mice were immunized at groin by s.c. injection of ovalbumin (OVA)-Alexa Fluor 647 (AF647) (25 µg per mouse) with or without SUP3 (2 nmol per mouse) or Pam3 (2 nmol per mouse) for 24 h. Inguinal lymph nodes were isolated, and immune cells were analyzed for levels of AF647 fluorescence by flow cytometry (A). The number of OVA-AF647 positive cells was calculated in (B). Representative data were from two independent experiments with three mice in each group.

[4] = test system: splenic B cells; test: Total IgM production by B cells in vitro; format: cell-based, mice; conditions: 200 nM, 3 or 5 days, ELISA; vs Pam3
From the text: Splenic DCs were purified as described previously ([37]). CD8^+ cDCs expanded by B16-Flt3L inoculation were enriched, and then CD8^+ cDCs were positively sorted by MACS technology (Miltenyi Biotec). Splenic B cells were purified through negative selection by Streptavidin-MicroBeads (Miltenyi Biotec 130-048-102) combined with different antibodies cocktail to exclude non-B cells. The antibodies cocktail was composed of biotinylated antibodies against CD4 (T cells and DCs) (eBioscience, clone GK1.5), CD8 (T cells and DCs) (eBioscience, clone 53-6.7), CD43 (T cells, monocytes, granulocytes) (eBioscience, clone eBioR2/60), and Ter119 (erythrocytes) (eBioscience, clone TER119). B cells were further purified through MACS LS column (Miltenyi Biotec 130-042-401).
Splenic DCs (5 × 10^5 cells/mL) were stimulated by Pam3 (200 nM), SUP3 (200 nM), or CpG ODN 1668 (20 nM; Adipogen IAX-200-001) in the GM-CSF (20 ng/mL) supplemented medium for indicated periods. […] Cytokines (IL-6, eBioscience 88-7064; TNFα, eBioscience 88-7324; IL-12p40, BioLegend 431604), chemokine (MIP1α, R&D Systems DY450-05), and total IgM (eBioscience, 88-50470) were quantified by ELISA kits following the instructions of manufacturers.
Figure 7 SUP3 promoted stronger B cell activation in vitro. […] (B) Supernatants were harvested 3 or 5 days post-stimulation, and total IgM in the supernatant was determined by ELISA. […]

plasma stability [1]: much higher than Pam3
Compound: CCCCCCCCCCCCCCCC(=O)N[C@@H](CSC[C@@H](COC(=O)NCCCCCCCCCCCCCC)OC(=O)NCCCCCCCCCCCCCC)C(=O)NCC(=O)N[C@@H](CCCCN)C(=O)N[C@@H](CCCCN)C(=O)N[C@@H](CCCCN)C(=O)O [SUP3, (2S,5S,8S,14R,18R)-2,5,8-tris(4-aminobutyl)-4,7,10,13,21-pentaoxo-14-palmitamido-18-((tetradecylcarbamoyl)oxy)-20-oxa-16-thia-3,6,9,12,22-pentaazahexatriacontan-1-oic acid] (Palmitoyl-C(X1)GKKK-OH)
production of IL-6 and TNFα by GMDCs [2]: comparable
numbers of antigen-containing CD8+ cDCs, CD11b+ cDCs, macrophages, and monocytes in inguinal lymph nodes [3]: increased numbers
antigen-independent production of IgM by B cells [4]: more
